Patent US10385031B2, “Substituted piperazines as selective HDAC1,2 inhibitors” (Regenacy Pharmaceuticals, LLC, priority 2016, dated 2019)

How the values were obtained:
HDAC1 = HDAC1 (Homo sapiens (Human), UniProt Q13547); test: HDAC enzyme assay HDAC1; type: biochemical
HDAC2 = HDAC2 (Homo sapiens (Human), UniProt Q92769); test: HDAC enzyme assay HDAC2; type: biochemical
Procedure: Compounds for testing were diluted in DMSO to 50 fold the final concentration and a ten-point three-fold dilution series was made. The compounds were diluted in assay buffer (50 mM HEPES, pH 7.4, 100 mM KCl, 0.001% Tween-20, 0.05% BSA, 20 μM TCEP) to 6-fold their final concentration. The HDAC enzymes (purchased from BPS Biosciences) were diluted to 1.5-fold their final concentration in assay buffer. The tripeptide substrate and trypsin at 0.05 μM final concentration were diluted in assay buffer at 6-fold their final concentration. The final enzyme concentrations used in these assays were 3.3 ng/ml (HDAC1), 0.2 ng/ml (HDAC2) and 0.08 ng/ml (HDAC3). The final substrate concentrations used were 16 μM (HDAC1), 10 μM (HDAC2) and 17 μM (HDAC3).
Five μl of compounds and 20 μl of enzyme were added to wells of a black, opaque 384 well plate in duplicate. Enzyme and compound were incubated together at room temperature for 10 minutes. Five μl of substrate was added to each well, the plate was shaken for 60 seconds and placed into a Victor 2 microtiter plate reader. The development of fluorescence was monitored for 60 min and the linear rate of the reaction was calculated. The IC50 was determined using Graph Pad Prism by a four parameter curve fit.

HDAC3 = HDAC3 (Homo sapiens (Human), UniProt O15379); test: HDAC enzyme assay HDAC3; type: biochemical
Procedure: Compounds for testing were diluted in DMSO to 50 fold the final concentration and a ten-point three-fold dilution series was made. The compounds were diluted in assay buffer (50 mM HEPES, pH 7.4, 100 mM KCl, 0.001% Tween-20, 0.05% BSA, 20 μM TCEP) to 6-fold their final concentration. The HDAC enzymes (purchased from BPS Biosciences) were diluted to 1.5-fold their final concentration in assay buffer. The tripeptide substrate and trypsin at 0.05 μM final concentration were diluted in assay buffer at 6-fold their final concentration. The final enzyme concentrations used in these assays were 3.3 ng/ml (HDAC1), 0.2 ng/ml (HDAC2) and 0.08 ng/ml (HDAC3). The final substrate concentrations used were 16 μM (HDAC1), 10 μM (HDAC2) and 17 μM (HDAC3). Five μl of compounds and 20 μl of enzyme were added to wells of a black, opaque 384 well plate in duplicate. Enzyme and compound were incubated together at room temperature for 10 minutes. Five μl of substrate was added to each well, the plate was shaken for 60 seconds and placed into a Victor 2 microtiter plate reader. The development of fluorescence was monitored for 60 min and the linear rate of the reaction was calculated. The IC50 was determined using Graph Pad Prism by a four parameter curve fit. In Table 4 below, letter designations are defined as follows: […]

[1] = Rat pharmacokinetics, cassette dosing (IV and PO); type: in vivo; details: rat, plasma, male SD rats; for bioavailability: 5 mg/kg, oral AUC to IV AUC, dose adjusted; for IV clearance: IV 1 mg/kg; for AUC / Cmax / half-life: PO 5 mg/kg; for half-life: read-out: PO T½ (converted)
Procedure: Male SD rats were fasted overnight. Compounds of the invention were dissolved in dimethyl acetamide at 10 times the final concentration, then Solutol HS 15 (BASF) was added to a final concentration of 10%. Finally 80% saline was added and vortexed to achieve a clear solution. For the IV dosing three animals were injected via the foot dorsal vein with 1 mg/kg compound. For the PO dosing 5 mg/kg of compound was delivered by oral gavage. Blood was collected via the tail vein into K2EDTA tubes at 5 minutes, 15 minutes, 30 minutes, 1 hour, 2 hours, 4 hours, 8 hours and 24 hours after dosing. The blood was centrifuged at 2000 g for 5 minutes at 4° C. to obtain plasma. The plasma was extracted with acetonitrile and the level of compound was analyzed by LC/MS/MS. The level of compound in plasma was calculated from a standard curve in rat plasma. The IV clearance (L/h/kg) and area under the curve (h*ng/mL) were calculated using WinNonLin software. The dose adjusted area under the curve for the IV and oral dosing were used to calculate the oral bioavailability.
Pharmacokinetic properties were assessed in a rat cassette dosing experiment. The IV clearance (IV Clr.) is in units of L/hr/kg. The oral maximum plasma concentration (PO Cmax) is in units of ng/ml. The oral plasma half-life (PO T½) is in units of hours. The oral area under the curve (PO AUC) is in units of hours*ng/ml. The fraction absorbed by the oral route (F %) is a percentage of the oral area under the curve to the IV area under the curve, dose adjusted.

Chain of HDAC2 (Q92769 whole entry): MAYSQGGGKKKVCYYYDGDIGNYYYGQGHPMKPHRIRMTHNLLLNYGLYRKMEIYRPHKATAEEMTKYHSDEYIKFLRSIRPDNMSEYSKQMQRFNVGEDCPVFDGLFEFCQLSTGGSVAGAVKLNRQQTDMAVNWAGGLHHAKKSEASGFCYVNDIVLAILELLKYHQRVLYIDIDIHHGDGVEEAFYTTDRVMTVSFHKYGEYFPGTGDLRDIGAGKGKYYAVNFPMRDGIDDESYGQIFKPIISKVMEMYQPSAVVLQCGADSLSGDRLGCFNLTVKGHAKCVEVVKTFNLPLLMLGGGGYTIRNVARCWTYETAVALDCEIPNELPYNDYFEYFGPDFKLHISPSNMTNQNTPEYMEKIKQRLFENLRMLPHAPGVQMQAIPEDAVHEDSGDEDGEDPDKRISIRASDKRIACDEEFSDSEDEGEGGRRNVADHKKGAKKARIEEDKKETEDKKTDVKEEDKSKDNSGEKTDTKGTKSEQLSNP
Chain of HDAC1 (Q13547 whole entry): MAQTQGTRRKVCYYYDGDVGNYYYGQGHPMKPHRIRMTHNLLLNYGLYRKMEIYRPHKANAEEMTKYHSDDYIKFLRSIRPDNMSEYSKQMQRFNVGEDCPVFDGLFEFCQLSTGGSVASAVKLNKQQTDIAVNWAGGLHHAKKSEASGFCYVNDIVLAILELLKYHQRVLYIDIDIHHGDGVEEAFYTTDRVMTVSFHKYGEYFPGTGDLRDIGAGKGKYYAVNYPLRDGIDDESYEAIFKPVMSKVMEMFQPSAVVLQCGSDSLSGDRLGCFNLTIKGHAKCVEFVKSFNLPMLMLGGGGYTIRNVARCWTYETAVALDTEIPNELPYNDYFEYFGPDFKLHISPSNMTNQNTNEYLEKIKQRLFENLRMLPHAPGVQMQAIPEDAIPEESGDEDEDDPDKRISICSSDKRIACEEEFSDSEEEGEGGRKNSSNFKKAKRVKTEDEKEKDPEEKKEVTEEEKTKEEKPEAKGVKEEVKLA
Chain of HDAC3 (O15379 whole entry): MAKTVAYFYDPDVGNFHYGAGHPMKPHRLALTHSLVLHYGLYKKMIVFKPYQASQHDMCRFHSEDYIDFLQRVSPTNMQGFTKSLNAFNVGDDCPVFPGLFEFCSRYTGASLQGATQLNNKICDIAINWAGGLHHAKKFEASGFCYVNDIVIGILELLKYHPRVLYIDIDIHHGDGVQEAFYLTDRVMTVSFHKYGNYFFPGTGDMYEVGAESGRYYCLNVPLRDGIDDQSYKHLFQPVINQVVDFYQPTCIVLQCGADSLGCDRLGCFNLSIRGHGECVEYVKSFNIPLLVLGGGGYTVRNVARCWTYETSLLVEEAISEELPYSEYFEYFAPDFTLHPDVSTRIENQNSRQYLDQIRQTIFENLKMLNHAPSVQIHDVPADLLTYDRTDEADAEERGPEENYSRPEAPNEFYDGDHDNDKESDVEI
Chain of HDAC3 (Q9Y618 395-489 partner): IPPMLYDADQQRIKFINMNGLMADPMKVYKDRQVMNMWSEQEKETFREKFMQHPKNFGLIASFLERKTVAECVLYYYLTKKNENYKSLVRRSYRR

Structure (SMILES)	IC50 (HDAC1) [nM]	IC50 (HDAC2) [nM]	IC50 (HDAC3) [nM]	bioavailability [1] [%]	IV clearance [1] [mL/min/kg]	AUC [1] [ng·h/mL]	Cmax [1] [ng/mL]	half-life [1] [h]
Nc1ccc(-c2cccnc2)cc1NC(=O)c1cnc(N2CCNCC2)s1 [Compound 045]	10 to 500	10 to 500	10 to 500					
CN1CCN(c2cnc(C(=O)Nc3cc(-c4cccs4)ccc3N)cn2)CC1 [Compound 086]	< 10	< 10	10 to 500					
Nc1ccc(-c2ccccc2)cc1NC(=O)c1ccc(N2CCNCC2)s1 [Compound 064]	< 10	10 to 500	10 to 500					
Nc1ccc(-c2ccccc2)cc1NC(=O)c1ncc(N2CCNCC2)s1 [Compound 049]		10 to 500	10 to 500					
Nc1ccc(-c2cc(F)cc(F)c2)cc1NC(=O)c1ccc(N2CCNCC2)cn1 [Compound 084]	> 500	> 500	> 500					
Cc1nc(C(=O)Nc2cc(-c3ccoc3)ccc2N)sc1N1CCNCC1 [Compound 043]	< 10	10 to 500	> 500					
CN1CCN(c2ccc(C(=O)Nc3cc(-c4ccco4)ccc3N)nc2)CC1 [Compound 082]	< 10	10 to 500	10 to 500					
Nc1ccc(-c2cccs2)cc1NC(=O)c1csc(N2CCNCC2)n1 [Compound 059]	> 500	10 to 500	10 to 500					
Nc1ccc(-c2ccco2)cc1NC(=O)c1ncc(N2CCNCC2)s1 [Compound 050]	< 10	10 to 500	10 to 500					
CN1CCN(c2ccc(C(=O)Nc3cc(-c4ccccc4)ccc3N)nc2)CC1 [Compound 079]	< 10	10 to 500	10 to 500					
Nc1ccc(-c2ccccn2)cc1NC(=O)c1ccc(N2CCNCC2)nc1 [Compound 073]	10 to 500	10 to 500	> 500					
Nc1ccc(-c2ccco2)cc1NC(=O)c1cnc(N2CCNCC2)cn1 [Compound 087]	< 10	10 to 500	10 to 500					
Nc1ccc(-c2cc(F)cc(F)c2)cc1NC(=O)c1ccc(N2CCNCC2)nc1 [Compound 078]	> 500	10 to 500	> 500					
Nc1ccc(-c2ccco2)cc1NC(=O)c1cnc(N2CCNCC2)s1 [Compound 034]	< 10	10 to 500	10 to 500					
Nc1ccc(-c2ccncc2)cc1NC(=O)c1ccc(N2CCNCC2)nc1 [Compound 010]				12.6	18.3	570	164	4.7
Nc1ccc(-c2ccoc2)cc1NC(=O)c1ccc2nc(N3CCNCC3)ccc2c1 [Compound 004]				90.8	0.667	91900	10400	4.3
Nc1ccc(-c2ccco2)cc1NC(=O)c1ccc(N2CCNCC2)cc1 [Compound 013]				105	13	5780	425	8.1
Nc1ccc(-c2ccoc2)cc1NC(=O)c1nc(N2CCNCC2)cs1 [Compound 056]	10 to 500	10 to 500	> 500					
Nc1ccc(-c2ccco2)cc1NC(=O)c1cnc2cc(N3CCNCC3)ccc2c1 [Compound 024]				36.3	3.5	8220	1000	4.4
Nc1ccc(-c2ccco2)cc1NC(=O)c1ccc(N2CCNCC2)nc1 [Compound 008]				100	14.3	5540	536	5.6

Structure (SMILES)	IC50 (HDAC1) [nM]	IC50 (HDAC2) [nM]	IC50 (HDAC3) [nM]	bioavailability [1] [%]	IV clearance [1] [mL/min/kg]	AUC [1] [ng·h/mL]	Cmax [1] [ng/mL]	half-life [1] [h]
Nc1ccc(-c2ccco2)cc1NC(=O)c1ccc(N2CCNCC2)s1 [Compound 065]	< 10	10 to 500	10 to 500					
Nc1ccc(-c2ccc(F)cc2)cc1NC(=O)c1cnc(N2CCNCC2)cn1 [Compound 090]	< 10	10 to 500	10 to 500					
Nc1ccc(-c2ccoc2)cc1NC(=O)c1cnc(N2CCNCC2)s1 [Compound 046]	< 10	10 to 500	10 to 500					
Nc1ccc(-c2ccoc2)cc1NC(=O)c1ncc(N2CCNCC2)s1 [Compound 051]	< 10	< 10	10 to 500					
Nc1ccc(-c2ccccc2)cc1NC(=O)c1cnc(N2CCNCC2)cn1 [Compound 085]	< 10	10 to 500	10 to 500					
Cc1nc(C(=O)Nc2cc(-c3ccco3)ccc2N)sc1N1CCNCC1 [Compound 042]	< 10	10 to 500	10 to 500					
Nc1ccc(-c2ccc(F)cc2)cc1NC(=O)c1ccc(N2CCNCC2)s1 [Compound 068]	< 10	10 to 500	10 to 500					
CN1CCN(c2ccc(C(=O)Nc3cc(-c4cccs4)ccc3N)nc2)CC1 [Compound 080]	< 10	< 10	10 to 500					
Nc1ccc(-c2ccccc2)cc1NC(=O)c1ccc2nc(N3CCNCC3)ccc2c1 [Compound 002]				86.1	2	34600	3750	5.9
Nc1ccc(-c2cccs2)cc1NC(=O)c1ccc(N2CCNCC2)s1 [Compound 033]				191	10.8	10700	614	13.7
Cc1nc(C(=O)Nc2cc(-c3cccs3)ccc2N)sc1N1CCNCC1 [Compound 041]	< 10	10 to 500	10 to 500					
Nc1ccc(-c2cccnc2)cc1NC(=O)c1ccc(N2CCNCC2)nc1 [Compound 072]	10 to 500	10 to 500	10 to 500					
Nc1ccc(-c2ccc(F)cc2)cc1NC(=O)c1cnc(N2CCNCC2)s1 [Compound 037]	< 10	10 to 500	10 to 500					
Nc1ccc(-c2ccccn2)cc1NC(=O)c1ccc(N2CCNCC2)cn1 [Compound 081]	10 to 500	10 to 500	> 500					
Nc1ccc(-c2ccccn2)cc1NC(=O)c1cnc(N2CCNCC2)s1 [Compound 044]	10 to 500	10 to 500	> 500					
Nc1ccc(-c2cccs2)cc1NC(=O)c1cnc2cc(N3CCNCC3)ccc2c1 [Compound 023]				51.2	6	6370	664	8.5
Nc1ccc(-c2cccs2)cc1NC(=O)c1ccc(N2CCNCC2)cc1 [Compound 012]				93.9	8.83	8190	534	7.7
Nc1ccc(-c2ccoc2)cc1NC(=O)c1ccc(N2CCNCC2)cc1 [Compound 014]				97	11	7100	727	4.9
CN1CCN(c2ccc(C(=O)Nc3cc(-c4cccs4)ccc3N)cn2)CC1 [Compound 071]		10 to 500	10 to 500					
